Assay results published in patent US5952189A (priority 1997, dated 1999).
pIC50: −log10 of the molar value. “Also recorded” adds a separate entry of the source. Read-outs that look alike come from different tables or passages of the source.

How the values were obtained:
HL-60 cells = details: Bruno et al. 1992; cited from earlier work
U937 cells [1] = assay: Visualization of DNA fragmentation in U937 cells by agarose gel electrophoresis; type: cell-based, human
Experimental: In FIG. 2, U937 cells were pretreated with and without TPCK 10 μM for 30 min, exposed to UV light 0.15 J/cm^2, incubated another 2.5 h, then the DNA extracted and analyzed by agarose gel electrophoresis. Lane 1 of FIG. 2 contains molecular weight markers, lane 2 contains untreated U937, lane 3 contains U937 treated with TPCK, lane 4 contains U937 treated with UV light, lane 5 contains U937 treated with TPCK and UV light.
DNA fragmentation was carried out according to the procedure of Example 2. After the desired treatments, the cells were lysed and debris was removed by centrifugation at 13,000×g for 10 sec. DNA in the supernatant was ethanol precipitated after phenol extraction. Equivalent amounts of material from a fixed number of cells were loaded and electrophoresed on a 1.0% agarose slab gel. DNA was visualized by ethidium bromide staining.

U937 cells [2] = assay: cells; type: cell-based, human; details: for Effect on DNA fragmentation induced by TNF or UV light: result in words
HL-60 = assay: Inhibition of UV-induced DNA fragmentation in HL-60 cells; type: cell-based, human; details: UV 0.2 J/cm^2, 2 h, no inhibitor 49 ± 2.0
Experimental: (§1) To determine if these findings were unique to U937 or if other cell lines also require protease activity to undergo apoptosis, the effects of several inhibitors on apoptosis induced by UV light in the human mammary carcinoma, BT-20, the murine fibroblast cell line, 3T3, and the human myeloid leukemia, HL-60 were tested. For the BT-20 and 3T3 cells, target cells were pretreated for one hour (with or without inhibitors as indicated in the table) and exposed to UV light at 0.5 J/cm^2 and then incubated for eight hours prior to assessing DNA fragmentation. HL-60 cells were pretreated for one hour (with or without inhibitors as indicated in the table) and exposed to UV at 0.2 J/cm^2 and then incubated for two hours prior to assessing DNA fragmentation.
DNA fragmentation assays were carried out according to the protocol of Wright S. C., et al. (1,992) J. Cell. Biochem. 48, 344-355. Target cells were labeled with ^3 H-thymidine and plated in triplicate in flat bottom microtiter plates. Cells were incubated for the indicated length of time for each experiment in the presence of TNF or various inhibitors. In some experiments, cells were treated with UV light at 245 nm using a UV Crosslinker (Fisher Scientific). Assays were harvested and counted on a Packard matrix 96 beta counter. Percent DNA fragmentation was calculated as for the nuclear assay described in Example 3. […]

isolated U937 nuclei = assay: DNA fragmentation assay using isolated U937 nuclei; type: cell-based, human; details: inhibitor 50 μM (FIG. 6B)
Experimental: U937 cells were labeled with ^3 H-thymidine by culturing overnight with isotope at 0.5 μCi/ml. The cells were pelleted, washed once, and the cytoplasmic membrane lysed by resuspending the cells in assay buffer (50 mM Tris, 250 mM sucrose 10 mM MgSO4, pH 7.5) plus 0.02% NP-40. Nuclei were then pelleted and resuspended in assay buffer at 1×10^6 /ml. The assay was set up in triplicate in flat bottom microtiter plates under sterile conditions. Nuclei (0.05 ml) were mixed with 0.05 ml of sample diluted in 50 mM Tris pH 7.5 or buffer alone to determine total counts. Plates were incubated for 5 h at 37° C. and then harvested by the addition of 0.1 ml of harvesting buffer (10 mM Tris, 10 mM EDTA, 0.3% Triton X-100, pH 7.5). Plates were harvested by filtration onto glass fiber paper and counted on a Packard Matrix 96 beta counter. Percent DNA fragmentation was calculated as follows: […]

3T3 = assay: Inhibition of UV-induced DNA fragmentation in 3T3 cells; type: cell-based, murine; details: UV 0.5 J/cm^2, 8 h, no inhibitor 38 ± 1.9
Experimental: as §1
DNA fragmentation assays were carried out according to the protocol of Wright S. C., et al. (1,992) J. Cell. Biochem. 48, 344-355. Target cells were labeled with ^3 H-thymidine and plated in triplicate in flat bottom microtiter plates. Cells were incubated for the indicated length of time for each experiment in the presence of TNF or various inhibitors. In some experiments, cells were treated with UV light at 245 nm using a UV Crosslinker (Fisher Scientific). Assays were harvested and counted on a Packard matrix 96 beta counter. Percent DNA fragmentation was calculated as for the nuclear assay described in Example 3. In assays to test the effects of various inhibitors, the pH of extra wells containing assay buffer, target cells, and each inhibitor was always checked at the beginning and end of each assay to assure that the pH remained at 7.5.

[3] = tested on: chymotrypsin-like enzymes; details: cited from earlier work
BT-20 = type: cell-based, human; details: for % DNA fragmentation: BT-20, UV 0.5 J/cm^2, 8 h, no inhibitor 44 ± 3.6
[4] = Poe et al. 1991; cited from earlier work
apoptotic protease [5] = assay: Inhibition of apoptotic protease proteolytic activity against a synthetic substrate; type: biochemical, human; details: data not shown
Experimental: Proteolytic activity was assayed using synthetic substrates selective for different known proteases. All assays were set up by adding 0.02 ml of sample (or known enzyme as a positive control) plus 0.18 ml of appropriate substrate dissolved in PBS PH 7.5 in triplicate in flat bottom microtiter plates, incubated for the indicated length of time at room temperature, and the OD at 405 nm measured using a plate reader.
Elastase-like activity was measured using N-methoxysuccinyl-ala-ala-pro-valp-nitroanilide (SEQ ID NO: 3) (MAAPV) at 0.25 mM as a substrate. For convenience and maximum sensitivity, these assays were routinely incubated 20 h to monitor protease purification. Under these conditions, the elastase dose response was linear up to a concentration of 6.0 μg/ml (OD of 1.0), see FIG. 3C. […] In order to quantitate the activity of the purified protease, identical assays were set up but kinetic readings of OD were taken every hour from 1-6 h. One unit of enzyme was calculated as the amount of enzyme that hydrolyzes 1.0 nmol substrate/h.
(§2) To further explore the specificity of DK120 attenuation of TNF-induced hepatotoxicity, several compounds were tested that were found previously not to inhibit apoptotic protease proteolytic activity as measured against a synthetic substrate (data not shown). […] Therefore, the protection mediated by DK120 is not a property of any boron-containing molecule.

[6] = tested on: TNF-induced hepatocyte apoptosis; assay: TNF-induced hepatotoxicity in mice (serum transaminases); type: in vivo, Balb/c mice
Experimental: In this example the concept that a protease inhibitor such as DK120 may attenuate inappropriate apoptosis that causes tissue damage in systemic inflammatory response syndrome (SIRS) was tested. TNF-induced hepatocyte apoptosis in mice was performed as described by Leist et al. ((1995) J. Immunol. 154:1778-1786). Briefly, Balb/c mice were injected ip with […] murine TNF combined with […] Actinomycin D/mouse. Twelve h later, mice were anesthetized and bled from the heart to measure serum transaminase levels, which are standard clinically used indicators of liver damage. Mice that were treated with protease inhibitors were injected ip with these compounds 30 min. prior to TNF. Alanine aminotransferase (ALT) and aspartate aminotransferase (AST) were assayed using a commercially available kit (Sigma). […] However, treatment with DK120 caused a doss-dependent decrease in serum transaminase levels. […] However, a drug that nonspecifically blocks all apoptotic pathways that normally function to maintain homeostasis may not be clinically desirable. Subsequent studies were performed to determine if DK120 could also suppress hepatocyte apoptosis in response to a different stimulus.
^1 Mice (2 for each treatment) were injected ip +/- DK120 30 min prio
to TNF and Actinomycin D. Twelve h later serum transaminase levels were
as §2
^1 Mice (3 for each treatment) were injected ip +/- the inhibitors 30
min prior to TNF and Actinomycin D. Twelve h later serum transaminase

apoptotic protease [7] = details: unspecified protease; cited from earlier work

Compound: Cc1ccc(S(=O)(=O)N[C@@H](Cc2ccccc2)C(=O)CCl)cc1 [TPCK, N-1-tosylamide-2-phenylethylchloromethyl ketone]
- Effect on chemotherapeutic drug-induced apoptosis (HL-60 cells): inhibits chemotherapeutic drug-induced apoptosis
- Effect on UV light-induced DNA fragmentation, agarose gel (U937 cells [1]; TPCK 10 μM 30 min, UV 0.15 J/cm^2, 2.5 h): completely abolished UV light-induced DNA fragmentation
- DNA fragments on agarose gel, compound alone (U937 cells [1]; TPCK alone, no UV): no DNA fragments
- pIC50 (U937 cells [2]; Homo sapiens, U-937, read-out: IC50 (Active Concentration), TNF and UV-light induced apoptosis): 5.70
- Concentration of maximum suppression of DNA fragmentation (U937 cells [2]; U937, TNF 1.0 ng/ml plus cycloheximide or UV 0.1 J/cm^2, 1 h pretreatment (FIG. 1)): 2.0 µM
- Effect on DNA fragmentation induced by TNF or UV light (U937 cells [2]; U937 cells): suppressed DNA fragmentation; also recorded: dose-dependently inhibit DNA fragmentation
- % DNA fragmentation (HL-60; inhibitor 1 μM): 19 ± 2.0%
- % DNA fragmentation (HL-60; inhibitor 5 μM): 1 ± 2.3%
- Inhibition of nuclear DNA fragmenting activity of protease from UV-treated cells (isolated U937 nuclei): inhibited
- % DNA fragmentation (3T3; inhibitor 1 μM): 32 ± 1.1%
- % DNA fragmentation (3T3; inhibitor 5 μM): 18 ± 0.8%
- Inhibition of chymotrypsin / chymotrypsin-like enzymes [3]: potent inhibitor of chymotrypsin-like enzymes
- % DNA fragmentation (BT-20; inhibitor 1 μM): 19 ± 5.5%
- % DNA fragmentation (BT-20; inhibitor 5 μM): 0 ± 0%
- Effect on UV-induced DNA fragmentation (BT-20; summary of Table 2 (BT-20, 3T3, HL-60)): effectively blocked DNA fragmentation

Compound: human granzyme B: serine protease of cytotoxic lymphocyte granules
- Activity on methoxysuccinyl-ala-ala-pro-val-thiobenzyl ester [4]: inactive

Compound: isopropylboronic acid [IBA]
- Inactive Compounds, Highest Concentration Tested (highest nontoxic concentration, inactive) (U937 cells [2]; U937 cells, TNF and UV light, compound inactive at this concentration): 20 µM
- Effect on DNA fragmentation induced by TNF or UV light (U937 cells [2]; U937 cells): does not inhibit DNA fragmentation
- Inhibition of apoptotic protease proteolytic activity (apoptotic protease [5]): no protease inhibitory activity
- Protection from TNF-induced hepatotoxicity ([6]; Table 10, 10 mg/kg): does not protect from TNF-induced hepatotoxicity
- ALT ([6]; mouse, in vivo): 393 +/- 52 U/ml
- Protease inhibitory activity (apoptotic protease [7]): non-inhibitory; also recorded: devoid of protease inhibitory activity
